Results as given in patent US20250241310A1, “METHODS AND COMPOSITION FOR CONTROLLING PESTS” (UPL CORPORATION LIMITED, priority 2021, published 2025).

Key:
Assay type in all cases: in vivo
[1] = test system: seed corn maggot (Delia platura); experiment: Field trial, seed treatment, pest severity of seed corn maggot
Procedure: Trials were carried out in field to assess efficacy of flupyrimin against seed corn maggot (Delia platura). Seeds were treated with flupyrimin before sowing. Evaluation was done to evaluate pest severity of said insects at different dosage. Soil Texture=fine sandy loam, pH=7, OM %=0.8.

[2] = test system: fall army worm (Spodoptera frugiperda); experiment: Field trial in corn plantation, % control of fall army worm, flupyrimin alone
Procedure: Trials were carried out in the field to assess efficacy of flupyrimin against fall army worm (Spodoptera frugiperda) in corn plantation. Evaluation was done to check % control of said insects at different dosage for 3, 7, 10, 14 DAA for 1st application and 3, 7, 10, 14, 21, 28, 35, and 42 DAA for 2nd application. The rate of application was 500 lit/ha.

[3] = test system: corn rootworm (Diabrotica virgifera virgifera); experiment: Field trial, seed treatment, efficacy against corn rootworm (% control and root damage index); details: for Damage Index: scale 1-6, corn roots
Procedure: Trials were carried out in field to assess efficacy of flupyrimin against corn rootworm (Diabrotica virgifera virgifera). Seeds were treated with flupyrimin before sowing. Evaluation was done to check % control of said insects at different dosage. Soil Texture=clay loam, pH=6.89, OM %=3.29.
Further, the damage index (Scale 1-6) at different concentrations was evaluated.
Assessment of the amount of damage by larval feeding of D. virgifera on corn roots were made by digging out the root system taking a diameter of approximately 25 cm to a depth of 15 cm. The root systems were then washed so that all crown roots were fairly clean. Damage on the root systems was assessed on 10 plants per plot (40 plants per treatment) using a scale as the following: • 1.0=no feeding damage; • 1.5=visible feeding scars present (not illustrated, but similar to a rating of two); • 2.0=up to three roots pruned slightly; • 2.5=more than three roots pruned, but none chewed to within 4 cm of plant; • 3.0=one to three roots chewed to within 4 cm of plant; • 3.5=more than three roots chewed to within 4 cm of plant; • 4.0=one entire node or equivalent number of roots destroyed • 4.5=about 1.5 nodes destroyed • 5.0=two nodes destroyed • 5.5=about 2.5 nodes destroyed • 6.0=three or more nodes completely destroyed (not illustrated, but similar to a rating of five)

[4] = test system: Corn leafhopper (Dalbulus maidis); experiment: Field trial, % control of adult corn leafhopper per plant
Procedure: Trials were carried out in field to assess efficacy of flupyrimin against Corn leafhopper (Dalbulus maidis). Evaluation was done to check % control of adult insects per plant at different dosage at 3 days after emergence and 7 days after emergence.

Which Pest severity ([1]; 100 g/100 kg of seeds, 14 DP) does the source give for `O=C(/N=c1\ccccn1Cc1ccc(Cl)nc1)C(F)(F)F` [Flupyrimin, N-[(E)-1-(6-chloro-3-pyridinylmethyl)pyridin-2 (1H)-ylidene]-2,2,2-trifluoroacetamide] here?
The Pest severity was 0.2.

And the Pest severity ([1]; 100 g/100 kg of seeds, 28 DP)?
The Pest severity was 4.3.

And the Pest severity ([1]; 100 g/100 kg of seeds, 35 DP)?
Its Pest severity is 4.8.

And the Pest severity ([1]; 100 g/100 kg of seeds, 42 DP)?
Its Pest severity is 5.9.

And the Pest severity ([1]; 200 g/100 kg of seeds, 14 DP)?
Its Pest severity is 0.

And the Pest severity ([1]; 200 g/100 kg of seeds, 28 DP)?
Its Pest severity is 0.7.

And the Pest severity ([1]; 200 g/100 kg of seeds, 35 DP)?
Its Pest severity is 0.9.

What about the Pest severity ([1]; 200 g/100 kg of seeds, 42 DP) of the same compound?
Its Pest severity is 1.8.

And the Pest severity ([1]; 300 g/100 kg of seeds, 14 DP)?
Its Pest severity is 0.

And the Pest severity ([1]; 300 g/100 kg of seeds, 28 DP)?
The Pest severity was 0.3.

What about the Pest severity ([1]; 300 g/100 kg of seeds, 35 DP) of the same compound?
The Pest severity was 0.5.

And the Pest severity ([1]; 300 g/100 kg of seeds, 42 DP)?
Its Pest severity is 0.9.

What about the Pest severity ([1]; 400 g/100 kg of seeds, 14 DP) of the same compound?
Its Pest severity is 0.

And the Pest severity ([1]; 400 g/100 kg of seeds, 28 DP)?
The Pest severity was 0.3.

What about the Pest severity ([1]; 400 g/100 kg of seeds, 35 DP) of the same compound?
The Pest severity was 0.5.

What about the Pest severity ([1]; 400 g/100 kg of seeds, 42 DP) of the same compound?
Its Pest severity is 1.1.

What about the Pest severity ([1]; 500 g/100 kg of seeds, 14 DP) of the same compound?
The Pest severity was 0.

And the Pest severity ([1]; 500 g/100 kg of seeds, 28 DP)?
Its Pest severity is 0.

What about the Pest severity ([1]; 500 g/100 kg of seeds, 35 DP) of the same compound?
The Pest severity was 0.

What about the Pest severity ([1]; 500 g/100 kg of seeds, 42 DP) of the same compound?
The Pest severity was 0.3.

What about the “efficacy against seed corn maggot (in words)” value ([1]; summary of Table 3) of the same compound?
Its value is “effective”.

And the “% Control” value ([2]; post 1st application, 150 g a.i./ha, 3 DAA)?
The value was 27.8%.

What about the “% Control” value ([2]; post 1st application, 150 g a.i./ha, 7 DAA) of the same compound?
The value was 29.1%.

And the “% Control” value ([2]; post 1st application, 150 g a.i./ha, 10 DAA)?
Its value is 28.1%.

What about the “% Control” value ([2]; post 1st application, 150 g a.i./ha, 14 DAA) of the same compound?
Its value is 24.4%.

What about the “% Control” value ([2]; post 1st application, 200 g a.i./ha, 3 DAA) of the same compound?
The value was 32.8%.

And the “% Control” value ([2]; post 1st application, 200 g a.i./ha, 7 DAA)?
Its value is 34.1%.

What about the “% Control” value ([2]; post 1st application, 200 g a.i./ha, 10 DAA) of the same compound?
Its value is 33.7%.

What about the “% Control” value ([2]; post 1st application, 200 g a.i./ha, 14 DAA) of the same compound?
The value was 29.5%.

And the “% Control” value ([2]; post 1st application, 250 g a.i./ha, 3 DAA)?
Its value is 38.1%.

What about the “% Control” value ([2]; post 1st application, 250 g a.i./ha, 7 DAA) of the same compound?
The value was 40.1%.

What about the “% Control” value ([2]; post 1st application, 250 g a.i./ha, 10 DAA) of the same compound?
The value was 36.7%.

What about the “% Control” value ([2]; post 1st application, 250 g a.i./ha, 14 DAA) of the same compound?
Its value is 32.9%.

What about the “% Control” value ([2]; post 2nd application, 150 g a.i./ha, 3 DAA) of the same compound?
Its value is 28.3%.

What about the “% Control” value ([2]; post 2nd application, 150 g a.i./ha, 7 DAA) of the same compound?
The value was 30.4%.

And the “% Control” value ([2]; post 2nd application, 150 g a.i./ha, 10 DAA)?
The value was 31.8%.

What about the “% Control” value ([2]; post 2nd application, 150 g a.i./ha, 14 DAA) of the same compound?
The value was 32.6%.

And the “% Control” value ([2]; post 2nd application, 150 g a.i./ha, 21 DAA)?
The value was 29.9%.

And the “% Control” value ([2]; post 2nd application, 150 g a.i./ha, 28 DAA)?
The value was 28.9%.

And the “% Control” value ([2]; post 2nd application, 150 g a.i./ha, 35 DAA)?
Its value is 27.3%.

What about the “% Control” value ([2]; post 2nd application, 150 g a.i./ha, 42 DAA) of the same compound?
Its value is 27.1%.

What about the “% Control” value ([2]; post 2nd application, 200 g a.i./ha, 3 DAA) of the same compound?
The value was 35.6%.

And the “% Control” value ([2]; post 2nd application, 200 g a.i./ha, 7 DAA)?
The value was 35.3%.

What about the “% Control” value ([2]; post 2nd application, 200 g a.i./ha, 10 DAA) of the same compound?
Its value is 36.3%.

And the “% Control” value ([2]; post 2nd application, 200 g a.i./ha, 14 DAA)?
The value was 35.3%.

What about the “% Control” value ([2]; post 2nd application, 200 g a.i./ha, 21 DAA) of the same compound?
Its value is 34.5%.

And the “% Control” value ([2]; post 2nd application, 200 g a.i./ha, 28 DAA)?
The value was 34.5%.

And the “% Control” value ([2]; post 2nd application, 200 g a.i./ha, 35 DAA)?
The value was 33.7%.

What about the “% Control” value ([2]; post 2nd application, 200 g a.i./ha, 42 DAA) of the same compound?
The value was 33.3%.

What about the “% Control” value ([2]; post 2nd application, 250 g a.i./ha, 3 DAA) of the same compound?
Its value is 41.4%.

And the “% Control” value ([2]; post 2nd application, 250 g a.i./ha, 7 DAA)?
The value was 42.7%.

And the “% Control” value ([2]; post 2nd application, 250 g a.i./ha, 10 DAA)?
Its value is 43.7%.

And the “% Control” value ([2]; post 2nd application, 250 g a.i./ha, 14 DAA)?
Its value is 44.4%.

What about the “% Control” value ([2]; post 2nd application, 250 g a.i./ha, 21 DAA) of the same compound?
The value was 41.4%.

And the “% Control” value ([2]; post 2nd application, 250 g a.i./ha, 28 DAA)?
Its value is 38.8%.

And the “% Control” value ([2]; post 2nd application, 250 g a.i./ha, 35 DAA)?
The value was 38.1%.

What about the “% Control” value ([2]; post 2nd application, 250 g a.i./ha, 42 DAA) of the same compound?
Its value is 37.9%.

What about the “Damage Index” value ([3]; 100 g/100 kg of seeds) of the same compound?
Its value is 2.3.

What about the “Damage Index” value ([3]; 200 g/100 kg of seeds) of the same compound?
Its value is 1.8.

And the “Damage Index” value ([3]; 300 g/100 kg of seeds)?
The value was 1.1.

And the “Damage Index” value ([3]; 400 g/100 kg of seeds)?
Its value is 1.

And the “Damage Index” value ([3]; 500 g/100 kg of seeds)?
Its value is 1.

What about the “% Control” value ([3]; seed treatment 100 g/100 kg of seeds) of the same compound?
Its value is 49.39%.

And the “% Control” value ([3]; seed treatment 200 g/100 kg of seeds)?
Its value is 70.4%.

And the “% Control” value ([3]; seed treatment 300 g/100 kg of seeds)?
Its value is 96.38%.

And the “% Control” value ([3]; seed treatment 400 g/100 kg of seeds)?
The value was 99.36%.

What about the “% Control” value ([3]; seed treatment 500 g/100 kg of seeds) of the same compound?
The value was 100%.

And the “insect control against corn rootworm (in words)” value ([3]; summary of Table 1)?
The value was “good insect control”.

And the “reduction of root damage (in words)” value ([3]; summary of Table 2, different concentrations)?
The value was “efficacious in reducing the damage”.

What about the “% Control” value ([4]; 100 g ai/100 kg, rate 0.2 Kg-L/ha, 3 DAE) of the same compound?
The value was 65%.

And the “% Control” value ([4]; 100 g ai/100 kg, rate 0.2 Kg-L/ha, 7 DAE)?
Its value is 50%.

And the “% Control” value ([4]; 200 g ai/100 kg, rate 0.4 Kg-L/ha, 3 DAE)?
The value was 50.91%.

What about the “% Control” value ([4]; 200 g ai/100 kg, rate 0.4 Kg-L/ha, 7 DAE) of the same compound?
The value was 45.83%.

And the “% Control” value ([4]; 300 g ai/100 kg, rate 0.6 Kg-L/ha, 3 DAE)?
The value was 86.93%.

What about the “% Control” value ([4]; 300 g ai/100 kg, rate 0.6 Kg-L/ha, 7 DAE) of the same compound?
The value was 47.02%.

And the “% Control” value ([4]; 500 g ai/100 kg, rate 1.0 Kg-L/ha, 3 DAE)?
The value was 80%.

What about the “% Control” value ([4]; 500 g ai/100 kg, rate 1.0 Kg-L/ha, 7 DAE) of the same compound?
The value was 63.69%.

What about the “control of corn leafhopper (in words)” value ([4]; summary of Table 4) of the same compound?
Its value is “good control”.
